The values that follow come from US10028961B2, “Therapeutically active compounds and their methods of use” (AGIOS PHARMACEUTICALS, INC., priority 2013, dated 2018).

Read-outs that look alike come from different tables or passages of the source. Some results are limits rather than exact numbers.

In assay [1] the target is IDH1 wt/IDH1 R132H heterodimer (Homo sapiens (Human), UniProt O75874, R132H). Nature of the assay: In vitro assay for IDH1m R132H inhibitors, IDH1 wt/IDH1 R132H heterodimer, NADPH depletion (diaphorase/resazurin). Format: biochemical. The method in brief: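 Read-out is NADPH left after α-KG reduction to 2-HG, measured via resorufin fluorescence after 5 min diaphorase/resazurin step at 25° C. Enzyme is sf9-expressed IDH1wt-his/IDH1R132H-flag heterodimer, pre-incubated 1 hr at room temperature with compound and cofactor. IC50s from DMSO stocks diluted 1:50.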
Chain of IDH1 wt/IDH1 R132H heterodimer (O75874 whole entry R132H): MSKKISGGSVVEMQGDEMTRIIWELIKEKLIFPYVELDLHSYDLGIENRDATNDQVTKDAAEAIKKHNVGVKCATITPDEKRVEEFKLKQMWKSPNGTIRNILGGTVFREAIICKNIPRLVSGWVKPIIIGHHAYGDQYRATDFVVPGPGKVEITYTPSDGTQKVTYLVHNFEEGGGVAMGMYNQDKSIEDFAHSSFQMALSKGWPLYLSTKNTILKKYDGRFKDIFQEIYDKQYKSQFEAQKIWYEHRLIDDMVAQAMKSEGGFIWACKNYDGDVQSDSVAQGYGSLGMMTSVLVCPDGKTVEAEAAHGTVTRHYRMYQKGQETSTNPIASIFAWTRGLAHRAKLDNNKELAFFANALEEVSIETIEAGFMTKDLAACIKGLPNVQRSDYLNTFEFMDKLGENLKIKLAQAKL
Chain of IDH1 wt/IDH1 R132H heterodimer (O75874 whole entry, stated change not applied): as the sequence (O75874 whole entry R132H) above, with H132R counted along it

Assay [2] has as its target IDH2 R140Q (Homo sapiens (Human), UniProt P48735, R140Q). Nature of the assay: In vitro assay for IDH2m R140Q inhibitors, cofactor depletion assay. Format: biochemical. Particulars: IDH2 R140Q enzyme. The method in brief: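 Remaining cofactor measured fluorimetrically: diaphorase/resazurin Stop Mix […], halting the reaction. Before that, mutant enzyme and compound sat 1 h at RT, then substrate mix (4 μM NADPH, 1.6 mM α-KG) was added for 16 h at RT.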

Assay [3] deals with HT1080 cells. Description: Cellular assay for IDH1m R132C inhibitors, 2-HG by LC-MS in HT1080 cells. Particulars: Homo sapiens, HT-1080. Format: cell-based. How it is done:
The following describes the experimental procedures that can be used to obtain data on column 5 of Table 4.
Cells (HT1080 or U87MG) are grown in T125 flasks in DMEM containing 10% FBS, 1× penicillin/streptomycin and 500 ug/mL G418 (present in U87MG cells only). They are harvested by trypsin and seeded into 96 well white bottom plates at a density of 5000 cell/well in 100 ul/well in DMEM with 10% FBS. No cells are placed in columns 1 and 12. Cells are incubated overnight at 37° C. in 5% CO2. The next day test compounds are made up at 2× the final concentration and 100 ul are added to each cell well. The final concentration of DMSO is 0.2% and the DMSO control wells are plated in row G. The plates are then placed in the incubator for 48 hours. At 48 hours, 100 ul of media is removed from each well and analyzed by LC-MS for 2-HG concentrations. The cell plate is placed back in the incubator for another 24 hours. At 72 hours post compound addition, 10 mL/plate of Promega Cell Titer Glo reagent is thawed and mixed. The cell plate is removed from the incubator and allowed to equilibrate to room temperature. Then 100 ul of Promega Cell Titer Glo reagent is added to each well of media. The cell plate is then placed on an orbital shaker for 10 minutes and then allowed to sit at room temperature for 20 minutes. The plate is then read for luminescence with an integration time of 500 ms.
HT1080 cells are maintained in RPMI containing 10% FBS, 1× penicillin/streptomycin. […] The next day compounds are prepared in 100% DMSO and then diluted in media for a final concentration of 0.2% DMSO. Media is removed from the cell plates and 200 μL of the compound dilutions are added to each well. […] The cell plates are then allowed to incubate another 24 hours.

Assay [4] has as its system U87MG pLVX-IDH2 R140Q-neo cells. Description: U87MG pLVX-IDH2 R140Q-neo cell based assay, 2-HG by LC-MS. The settings on record: Homo sapiens, U-87 MG.
Assay [5] has as its system Neurosphere cells (TS603). Description: Cellular assay for IDH1m R132H inhibitors, 2-HG by LC-MS in neurosphere cells (TS603). The format is cell-based. The settings on record: 2-HG in media at 48 hours. The method in brief:
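TS603 neurosphere cells in NeuroCult medium were dosed with compound (0.25% DMSO final) at 37 C, 5% CO2. After 48 hours, medium 2-HG was measured by LC-MS. At 72 hours, viability was read by CellTiter-Glo luminescence.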

Where [6] appears, read: IDH1 wt/IDH1 R132H heterodimer, 300 μM NADP (saturated), read-out: IDH1 wt/R132H NADPH/NADP IC50 saturated.
Setting [7] is: IDH1 wt/R132H heterodimer, NADPH/NADP, not saturated, read-out: IDH1 wt/R132H NADPH/NADP IC50 not saturated.

Chain of IDH2 R140Q (P48735 40-452 R140Q): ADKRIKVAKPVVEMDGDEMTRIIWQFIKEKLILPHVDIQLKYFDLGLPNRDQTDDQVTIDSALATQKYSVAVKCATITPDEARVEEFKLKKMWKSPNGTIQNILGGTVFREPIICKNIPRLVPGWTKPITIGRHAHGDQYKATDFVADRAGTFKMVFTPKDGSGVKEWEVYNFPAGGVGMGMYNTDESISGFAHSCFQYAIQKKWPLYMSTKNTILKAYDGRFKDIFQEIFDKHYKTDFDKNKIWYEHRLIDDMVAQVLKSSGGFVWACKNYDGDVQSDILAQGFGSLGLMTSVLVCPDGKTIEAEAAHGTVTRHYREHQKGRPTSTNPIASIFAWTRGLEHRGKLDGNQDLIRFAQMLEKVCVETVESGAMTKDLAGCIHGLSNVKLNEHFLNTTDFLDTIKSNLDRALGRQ

As to `FC(F)c1csc(-c2nc(NC3CCC(F)(F)C3)nc(NC3CCC(F)(F)C3)n2)n1` (stereo not shown) [Compound 402], the IC50 in assay [1] (setting [6]) was 50 to 100 nM; in assay [2], below 50 nM; in assay [3] it was below 50 nM; in assay [4] it was below 50 nM; in assay [5], below 50 nM.

With `FC1(F)CC(Nc2nc(Nc3ccnc(C(F)(F)F)c3)nc(-c3nc(C(F)(F)F)cs3)n2)C1` [Compound 388], the IC50 in assay [1] (setting [6]) is below 50 nM; in assay [2], below 50 nM; in assay [3] it was 50 to 100 nM; in assay [4], below 50 nM; in assay [5], below 50 nM.

Turning to `N#Cc1cc(Nc2nc(N[C@H]3CCC(F)(F)C3)nc(-n3ccc(C(F)(F)F)n3)n2)ccn1` [Compound 381], the IC50 was below 50 nM in assay [1] (setting [6]); below 50 nM in assay [2]; 100 to 1000 nM in assay [3]; below 50 nM in assay [4]; below 50 nM in assay [5].

As to `CC(F)(F)c1cccc(-c2nc(NC3CCC(F)(F)CC3)nc(NC3CCC(F)(F)CC3)n2)n1` [Compound 218], the IC50 was below 50 nM in assay [1] (setting [7]); below 50 nM in assay [2]; 100 to 1000 nM in assay [3]; below 50 nM in assay [4]; below 50 nM in assay [5].

With `C[C@@H](Nc1nc(N[C@H](C)C(F)(F)F)nc(-c2csc(C(F)(F)F)n2)n1)C(F)(F)F` [Compound 114], the IC50 in assay [1] (setting [7]), in assay [2], in assay [3], in assay [4] and in assay [5] was below 50 nM in each case.

In the case of `COc1ccc2c(c1)CC(Nc1nc(NC3CCC(F)(F)C3)nc(-c3cccc(C(F)(F)F)n3)n1)C2` (stereo not shown) [Compound 166], the IC50 in assay [1] (setting [7]) is below 50 nM; in assay [3] it was 100 to 1000 nM; in assay [5], below 50 nM.

As to `FC(F)c1cncc(-c2nc(NC3CCC(F)(F)C3)nc(NC3CCC(F)(F)C3)n2)n1` (stereo not shown) [Compound 408], the IC50 in assay [1] (setting [6]), in assay [2], in assay [3], in assay [4] and in assay [5] was below 50 nM throughout.

In the case of `CC(C)(O)CNc1nc(Nc2cc(F)cc(F)c2)nc(-n2ccc(C(F)(F)F)n2)n1` [Compound 235], the IC50 was below 50 nM in assay [1] (setting [7]); below 50 nM in assay [2]; 100 to 1000 nM in assay [3]; below 50 nM in assay [4]; below 50 nM in assay [5].

With `C[C@H](Nc1nc(N[C@@H](C)C(F)(F)F)nc(-c2cccc(Cl)n2)n1)C(F)(F)F` [Compound 142], the IC50 in assay [3], in assay [4] and in assay [5] was below 50 nM throughout.

As to `CC(Nc1nc(NC(C)C(F)(F)F)nc(-c2cccc(Cl)n2)n1)C(F)(F)F` (stereo not shown) [Compound 130], the IC50 in assay [3] and in assay [4] was below 50 nM in each case.

For the compound `C[C@@H](Nc1nc(N[C@H](C)C(F)(F)F)nc(-c2cccc(Cl)n2)n1)C(F)(F)F` [Compound 101], the IC50 in assay [3], in assay [4] and in assay [5] was below 50 nM each time.

With `FC1(F)CCC(Nc2nc(Nc3cncc(C(F)(F)F)c3)nc(-c3cccc(C(F)(F)F)n3)n2)C1` (stereo not shown) [Compound 405], the IC50 was 50 to 100 nM in assay [1] (setting [6]); below 50 nM in assay [2]; 50 to 100 nM in assay [3]; below 50 nM in assay [4]; below 50 nM in assay [5].

Regarding `N#CC1(c2cc(Nc3nc(N[C@@H]4CCC(F)(F)C4)nc(-c4cncc(C(F)(F)F)n4)n3)ccn2)CC1` [Compound 378], the IC50 in assay [1] (setting [6]) is below 50 nM; in assay [2], below 50 nM; in assay [3], 50 to 100 nM; in assay [4], below 50 nM; in assay [5], below 50 nM.

With `FC(F)c1ccnc(-c2nc(NC3CC(F)(F)C3)nc(NC3CC(F)(F)C3)n2)n1` [Compound 411], the IC50 in assay [1] (setting [6]) was 100 to 1000 nM; in assay [2] it was 50 to 100 nM; in assay [3] it was 100 to 1000 nM; in assay [4], 50 to 100 nM; in assay [5] it was below 50 nM.

Consider `FC1(F)CCC(Nc2nc(NC3Cc4cccnc4C3)nc(-c3cccc(C(F)(F)F)n3)n2)C1` (stereo not shown) [Compound 188], for which the IC50 in assay [1] (setting [7]), in assay [3] and in assay [5] was below 50 nM throughout.

For `FC1(F)CCC(Nc2nc(NC3CCC(F)(F)C3)nc(-c3cccc(C4CC4)n3)n2)C1` (stereo not shown) [Compound 258], the IC50 in assay [1] (setting [7]) is 100 to 1000 nM; in assay [3], above 1000 nM; in assay [4], below 50 nM.

On to `CC(Nc1nc(NC(C)C(F)(F)F)nc(-c2nc(C(F)(F)F)cs2)n1)C(F)(F)F` (stereo not shown) [Compound 404], for which the IC50 in assay [1] (setting [6]), in assay [2], in assay [3], in assay [4] and in assay [5] was below 50 nM each time.

On to `FC(F)(F)c1cc(Nc2nc(NCC3CC3)nc(-n3ccc(C(F)(F)F)n3)n2)ccn1` [Compound 407], for which the IC50 was 100 to 1000 nM in assay [1] (setting [6]); below 50 nM in assay [2]; 100 to 1000 nM in assay [3]; below 50 nM in assay [4]; below 50 nM in assay [5].

In the case of `C[C@@H](Nc1nc(N[C@H](C)C2CC2)nc(-c2cc(F)ccc2F)n1)C1CC1` [Compound 292], the IC50 in assay [1] (setting [7]) was 100 to 1000 nM; in assay [3], above 1000 nM.

Regarding `N#CC1(c2cc(Nc3nc(NC4CCC(F)(F)CC4)nc(-c4cncc(C(F)(F)F)n4)n3)ccn2)CC1` [Compound 394], the IC50 is below 50 nM in assay [1] (setting [6]); below 50 nM in assay [2]; 100 to 1000 nM in assay [3]; below 50 nM in assay [4]; below 50 nM in assay [5].

Take `FC(F)c1csc(-c2nc(NC3CC(F)(F)C3)nc(NC3CC(F)(F)C3)n2)n1` [Compound 403]: the IC50 in assay [1] (setting [6]), in assay [2], in assay [3], in assay [4] and in assay [5] was below 50 nM throughout.

On to `C[C@H](Nc1nc(N[C@H](C)C(F)(F)F)nc(-c2cccc(Cl)n2)n1)C(F)(F)F` [Compound 136], for which the IC50 in assay [3], in assay [4] and in assay [5] was below 50 nM each time.

As for `N#CC1(c2cc(Nc3nc(NC4CC5(C4)CC(F)(F)C5)nc(-c4cncc(C(F)(F)F)n4)n3)ccn2)CC1` [Compound 385], the IC50 in assay [1] (setting [6]) was 50 to 100 nM; in assay [2] it was below 50 nM; in assay [3], 100 to 1000 nM; in assay [4] it was below 50 nM; in assay [5], below 50 nM.

Regarding `CC(F)(F)c1cccc(-c2nc(Nc3ccnc(C4(C#N)CC4)c3)nc(NC3CCC(F)(F)C3)n2)n1` (stereo not shown) [Compound 384], the IC50 is below 50 nM in assay [1] (setting [6]); below 50 nM in assay [2]; 100 to 1000 nM in assay [3]; below 50 nM in assay [4]; below 50 nM in assay [5].

In the case of `C[C@@H](Nc1nc(N[C@H](C)C(F)(F)F)nc(-c2cncc(C(F)(F)F)n2)n1)C(F)(F)F` [Compound 386], the IC50 in assay [1] (setting [6]), in assay [2], in assay [3], in assay [4] and in assay [5] was below 50 nM in each case.

As to `FC1(F)CC(Nc2nc(Nc3ccnc(C(F)(F)F)c3)nc(-c3cncc(C(F)(F)F)n3)n2)C1` [Compound 390], the IC50 was 50 to 100 nM in assay [1] (setting [6]); below 50 nM in assay [2]; 100 to 1000 nM in assay [3]; below 50 nM in assay [4]; below 50 nM in assay [5].

As to `C[C@@H](Nc1nc(Nc2ccnc(C3(C#N)CC3)c2)nc(-c2cncc(C(F)(F)F)n2)n1)C(F)(F)F` [Compound 377], the IC50 is below 50 nM in assay [1] (setting [6]); below 50 nM in assay [2]; 100 to 1000 nM in assay [3]; below 50 nM in assay [4]; below 50 nM in assay [5].

Take `FC(F)c1ccnc(-c2nc(NC3CCC(F)(F)C3)nc(NC3CCC(F)(F)C3)n2)n1` (stereo not shown) [Compound 412]: the IC50 in assay [1] (setting [6]) was 100 to 1000 nM; in assay [3], 100 to 1000 nM; in assay [4], 50 to 100 nM; in assay [5] it was below 50 nM.
